Common to all, as to assay type: in vivo
For assay [1], the system named is human acute lymphoblastic leukemia cells (RS4:11). As to the kind of experiment: RS4:11 Acute Lymphoblastic Leukemia xenograft efficacy in SCID mice. The protocol:
The efficacy evaluation of the vehicle (phosphate buffer saline), Compound A (formulated in 30% HP-β-CD, pH 4), Compound 1 in PBS (equivalent to 10 mg/kg Compound A) and Compound 2 in PBS (equivalent to 10 mg/kg and 30 mg/kg Compound A) is shown.
The efficacy evaluation of the vehicle (phosphate buffer saline, PBS), a formulation of Compound A in 30% HP-β-CD, Compound 1 in PBS (equivalent to 20 mg/kg Compound A) and Compound 2 in PBS (equivalent to 20 mg/kg Compound A) and is shown.
Preparation of Compounds 1 and 2 PBS formulations for dosing RS4:11 efficacy study: The appropriate amounts of Compound 1 and 2 were weighed into a volumetric flask. 10 mL Dulbecc's Phosphate Buffered Saline (PBS) was added and formulations were then stirred until the compound dissolved entirely.
The appropriate amount of Compound A was weighed into a 10 mL volumetric flask. 8 mL of 30% w/v HP-β-CD vehicle was then added and the formulation stirred. 1M MSA was added dropwise until the pH was reduced to about 2. The formulation was then stirred until the compound dissolved entirely. The pH was measured and adjusted to pH 4, dropwise using 1M MSA or NaOH. The formulation was then stirred to make sure a clear solution (with possible haze) was obtained. The volume was then made up to 10 mL with 30% w/v HP-β-CD vehicle and stirred. The final pH was measured and recorded and the formulation filtered through a […] filter prior to administration. Other formulation strengths were prepared by diluting the Compound A in 30% w/v HP-β-CD with an appropriate amount of 30% w/v HP-β-CD vehicle.
Efficacy of Compounds 1 and 2 in RS4:11 Xenograft Model: 5×10^6 RS4; 11 cells in a total volume of 100 μL were inoculated subcutaneously at the mouse right flank. […]
(§1) On specific day, for each treated group, calculate Inhibition value by formula: Inhibition %=(CG-TG)*100/(CG-1), in which “CG” means the geometric mean of rtv of the control group and “TG” means the Geometric Mean of Relative Tumor Volume (rtv) of the treated group. “CG” should use the corresponding control group of the treated group when calculated. […]

Assay [2] concerns Cleaved poly ADP ribose polymerase (PARP). Kind of assay: Cleaved PARP response (cell death) after a single dose. To be noted: Compound A in HP-β-CD formulation. The protocol: Cleaved poly ADP ribose polymerase (PARP) response was used as a measure of cell death.
Additionally, cell death (apoptosis) was measured using cleaved PARP (FIG. 4).

Another assay relates to SuDHL-4. As to the kind of experiment: SuDHL-4 xenograft model in SCID mice, alone and with rituximab. The protocol: Formulations of Compound 1 for SuDHL-4 efficacy study: Compound 1 was formulated in a pH 5 citrate/phosphate buffer diluted 1:10 with 5% glucose and containing 1% w/v Kolliphor HS-15, at concentrations up to 105 mg/mL of Compound 1 (equivalent to up to 30 mg/mL of Compound A concentration).
Formulations of Compound 2 for dosing in SuDHL-4 efficacy study: Compound 2 was formulated in a pH 4 citrate/phosphate buffer diluted 1:10 with 5% Glucose and containing 1% w/v Kolliphor HS-15, at concentrations up to 121 mg/mL of Compound 2 (equivalent of up to 30 mg/mL of Compound A concentration).
Compounds 1 and 2 enhance inhibition of tumor growth by rituximab in SuDHL-4 Xenograft Model in SCID Mice: The SuDHL-4 xenograft model was used to test the ability of Compounds 1 and 2 to enhance the activity of rituximab in inhibiting tumor growth. […]
Tumor sizes were measured 2 times a week and calculated as: Tumor Volume=(A×B^2)/2 where A and B are the tumor length and width (in mm), respectively.
as §1

As for `CN(CCO)CC[C@H](CCSc1ccccc1)CNc1ccc(S(=O)(=O)NC(=O)c2ccc(N3CCC([C@@H](O)c4ccccc4-c4ccc(Cl)cc4)CC3)cc2)cc1S(=O)(=O)C(F)(F)F` [Compound A, reference compound], in assay [1] (Compound A 5 mg/kg), the “% Inhibition Day (47)” value was >100% and the “% Regression Day(47)” value was determined as 90%. For the same compound, the regression in assay [1] (Compound A HP-β-CD 10 mg/kg IV once) is 90%. Also, the “time of cleaved PARP induction post treatment” value in assay [2] is “immediately post treatment 1 and 3 hr”.

In the case of rituximab [reference compound], in the assay with SuDHL-4 (rituximab 10 mg/kg alone), the “T − C” value is >16 days. The “% Inhibition (TIC) Day(41)” value in the assay on SuDHL-4 (rituximab 10 mg/kg i.p. once a week for 5 weeks) is recorded as 75.27%.

The values above are taken from patent US12115174B2, “Dendrimer formulations” (AstraZeneca AB, priority 2018, dated 2024).
